Measurements as given in PubChem BioAssay (NCI).
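GI50: concentration for 50% inhibition of growth. The concentration for full growth arrest is given as TGI.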

How the values were obtained:
Test in all cases: NCI anticancer screen, dose series, 384-well format
[1] = system: OVCAR-8 ovarian
[2] = system: RXF 393 renal
[3] = system: DU-145 prostate
[4] = system: T-47D breast
[5] = system: HT29 colon
[6] = system: MOLT-4 leukemia
[7] = system: SK-MEL-28 melanoma
[8] = system: MCF7 breast
[9] = system: UACC-62 melanoma
[10] = system: SF-539 CNS
[11] = system: IGROV1 ovarian
[12] = system: HCC-2998 colon
[13] = system: HOP-92 NSCLC
[14] = system: HL-60(TB) leukemia
[15] = system: KM12 colon
[16] = system: BT-549 breast
[17] = system: MDA-MB-468 breast
[18] = system: SNB-75 CNS
[19] = system: K-562 leukemia
[20] = system: OVCAR-5 ovarian
[21] = system: NCI/ADR-RES ovarian
[22] = system: TK-10 renal
[23] = system: ACHN renal
[24] = system: SN12C renal
[25] = system: SW-620 colon
[26] = system: NCI-H226 lung
[27] = system: NCI-H322M lung
[28] = system: U251 glioblastoma
[29] = system: SK-MEL-5 melanoma
[30] = system: NCI-H460 NSCLC
[31] = system: OVCAR-3 ovarian
[32] = system: M14 melanoma
[33] = system: MDA-MB-435 melanoma
[34] = system: SF-295 CNS
[35] = system: UO-31 renal
[36] = system: SR leukemia
[37] = system: MDA-MB-231 breast
[38] = system: CAKI-1 renal
[39] = system: PC-3 prostate
[40] = system: A549 NSCLC
[41] = system: HOP-62 NSCLC
[42] = system: SK-OV-3 ovarian
[43] = system: A498 renal
[44] = system: HS 578T breast
[45] = system: UACC-257 melanoma
[46] = system: HCT-15 colon
[47] = system: CCRF-CEM leukemia

`Cc1cc(-c2nc(C(=O)Nc3cc4oc(N5CCOCC5)nc4nc3N3CC[C@@H](O)C3)co2)ccn1` showed a GI50 [1] of 38.1 µM, a TGI [1] greater than 100000 nM and a GI50 [2] of 12 µM. For the same compound, the TGI [2] was 64.1 µM, the GI50 [3] was 34.1 µM and the TGI [3] was greater than 100000 nM. The GI50 [4] was 11.8 µM, the TGI [4] was 88 µM and the GI50 [5] was greater than 100000 nM. The TGI [5] was greater than 100000 nM, the GI50 [6] was 13.2 µM and the TGI [6] was 26.6 µM. It also gave a GI50 [7] of 49.6 µM, a TGI [7] greater than 100000 nM and a GI50 [8] of 16.5 µM. For the same compound, the TGI [8] was greater than 100000 nM, the GI50 [9] was 22.6 µM and the TGI [9] was greater than 100000 nM. For the same compound, the GI50 [10] was 23.2 µM, the TGI [10] was greater than 100000 nM and the GI50 [11] was 11.4 µM. For the same compound, the TGI [11] was 35.6 µM, the GI50 [12] was 21.2 µM and the TGI [12] was greater than 100000 nM. The GI50 [13] was 27.3 µM, the TGI [13] was greater than 100 µM and the GI50 [14] was 17.7 µM. For the same compound, the TGI [14] was 44.2 µM, the GI50 [15] was 424 nM and the TGI [15] was greater than 100000 nM. It also gave a GI50 [16] of 16.3 µM, a TGI [16] of 82.1 µM and a GI50 [17] of 8.63 µM. The TGI [17] was 33.1 µM, the GI50 [18] was 11.2 µM and the TGI [18] was 58.8 µM. For the same compound, the GI50 [19] was 34.9 µM, the TGI [19] was greater than 100000 nM and the GI50 [20] was 46 µM. The TGI [20] was greater than 100 µM, the GI50 [21] was greater than 100000 nM and the TGI [21] was greater than 100 µM. For the same compound, the GI50 [22] was 18.6 µM, the TGI [22] was greater than 100 µM and the GI50 [23] was 19.8 µM. It also gave a TGI [23] greater than 100 µM, a GI50 [24] of 21.5 µM and a TGI [24] greater than 100 µM. It also gave a GI50 [25] of 28.5 µM, a TGI [25] greater than 100000 nM and a GI50 [26] of 81.2 µM. The TGI [26] was greater than 100 µM, the GI50 [27] was 30.1 µM and the TGI [27] was greater than 100 µM. The GI50 [28] was 32.7 µM, the TGI [28] was greater than 100 µM and the GI50 [29] was 11.6 µM. It also gave a TGI [29] of 59 µM, a GI50 [30] of 29.8 µM and a TGI [30] greater than 100000 nM. The GI50 [31] was 13.3 µM, the TGI [31] was 42 µM and the GI50 [32] was 27.9 µM. For the same compound, the TGI [32] was greater than 100000 nM, the GI50 [33] was 29.3 µM and the TGI [33] was greater than 100000 nM. The GI50 [34] was 53.7 µM, the TGI [34] was greater than 100 µM and the GI50 [35] was 33.5 µM. It also gave a TGI [35] greater than 100 µM, a GI50 [36] of 18 µM and a TGI [36] of 37.3 µM. It also gave a GI50 [37] of 36.9 µM, a TGI [37] greater than 100 µM and a GI50 [38] of 8.01 µM. It also gave a TGI [38] of 38.3 µM, a GI50 [39] of 35.8 µM and a TGI [39] greater than 100 µM. The GI50 [40] was 32.3 µM, the TGI [40] was greater than 100 µM and the GI50 [41] was 15.3 µM. The TGI [41] was greater than 100000 nM, the GI50 [42] was 8.43 µM and the TGI [42] was 44.1 µM. It also gave a GI50 [43] of 12.3 µM, a TGI [43] greater than 100 µM and a GI50 [44] of 2370 nM. The TGI [44] was 23.4 µM, the GI50 [45] was 37.5 µM and the TGI [45] was greater than 100000 nM. The GI50 [46] was 20.2 µM, the TGI [46] was greater than 100000 nM and the GI50 [47] was 21.4 µM. The TGI [47] was 62.2 µM.
`C[C@@H](Oc1cc(-n2cnc3ccc(CN4CCN(C)CC4)cc32)sc1C(N)=O)c1ccccc1C(F)(F)F` gave a GI50 [1] of 0.348 µM, a TGI [1] of 1290 nM and a GI50 [2] of 0.192 µM. For the same compound, the TGI [2] was 0.565 µM, the GI50 [3] was 0.346 µM and the TGI [3] was 1210 nM. For the same compound, the GI50 [4] was 1.83 µM, the TGI [4] was 5.23 µM and the GI50 [5] was 360 nM. The TGI [5] was 1250 nM, the GI50 [6] was 0.193 µM and the TGI [6] was 0.342 µM. For the same compound, the GI50 [7] was 1.53 µM, the TGI [7] was 2940 nM and the GI50 [8] was 0.384 µM. The TGI [8] was 2500 nM, the GI50 [9] was 0.613 µM and the TGI [9] was 2100 nM. It also gave a GI50 [10] of 0.462 µM, a TGI [10] of 1720 nM and a GI50 [11] of 0.844 µM. For the same compound, the TGI [11] was 11.4 µM, the GI50 [12] was 0.595 µM and the TGI [12] was 1890 nM. It also gave a GI50 [13] of 1.57 µM, a TGI [13] of 5.26 µM and a GI50 [14] of 0.203 µM. The TGI [14] was 0.352 µM, the GI50 [15] was 296 nM and the TGI [15] was 982 nM. It also gave a GI50 [16] of 0.422 µM, a TGI [16] of 1.91 µM and a GI50 [17] of 0.214 µM. It also gave a TGI [17] of 0.446 µM, a GI50 [18] of 1.68 µM and a TGI [18] of 5.3 µM. The GI50 [19] was 0.307 µM, the TGI [19] was 1010 nM and the GI50 [20] was 0.532 µM. For the same compound, the TGI [20] was 3.76 µM, the GI50 [21] was 1690 nM and the TGI [21] was 3.59 µM. The GI50 [22] was 1.22 µM, the TGI [22] was 6.03 µM and the GI50 [23] was 3.29 µM. For the same compound, the TGI [23] was 13.8 µM, the GI50 [24] was 2.89 µM and the TGI [24] was 15.4 µM. It also gave a GI50 [25] of 0.34 µM, a TGI [25] of 1510 nM and a GI50 [26] of 3.55 µM. The TGI [26] was 17.8 µM, the GI50 [27] was 1.78 µM and the TGI [27] was 9.79 µM. It also gave a GI50 [28] of 0.689 µM, a TGI [28] of 5.08 µM and a GI50 [29] of 0.359 µM. For the same compound, the TGI [29] was 1.64 µM, the GI50 [30] was 0.32 µM and the TGI [30] was 906 nM. The GI50 [31] was 0.227 µM, the TGI [31] was 0.534 µM and the GI50 [32] was 0.573 µM. The TGI [32] was 1860 nM, the GI50 [33] was 0.244 µM and the TGI [33] was 602 nM. For the same compound, the GI50 [34] was 1.05 µM, the TGI [34] was 9.34 µM and the GI50 [35] was 2.67 µM. For the same compound, the TGI [35] was 10.3 µM, the GI50 [36] was 0.146 µM and the TGI [36] was 0.294 µM. It also gave a GI50 [37] of 0.679 µM, a TGI [37] of 10.6 µM and a GI50 [38] of 1.63 µM. The TGI [38] was 4.5 µM, the GI50 [39] was 0.804 µM and the TGI [39] was 11.4 µM. It also gave a GI50 [40] of 0.819 µM, a TGI [40] of 6.85 µM and a GI50 [41] of 0.465 µM. For the same compound, the TGI [41] was 2340 nM, the GI50 [42] was 0.402 µM and the TGI [42] was 2.6 µM. For the same compound, the GI50 [43] was 0.871 µM, the TGI [43] was 12.2 µM and the GI50 [44] was 1010 nM. It also gave a TGI [44] of 2.58 µM, a GI50 [45] of 1.15 µM and a TGI [45] of 2370 nM. The GI50 [46] was 0.374 µM, the TGI [46] was 1200 nM and the GI50 [47] was 0.18 µM. For the same compound, the TGI [47] was 0.329 µM.
